These results are taken from patent publication US10450300B2, “Wnt signaling pathway inhibitors and therapeutic applications thereof” (Suzhou Yunxuan Yiyao Keji Youxian Gongsi, priority 2015, dated 2019).

One may read the IC50 as the concentration needed to halve the response being measured.

This test relates to Wnt pathway. The experiment in a line: Wnt pathway Super-top flash (STF) reporter gene assay (primary assay). The format is cell-based. Conditions: HEK293 STF cells co-cultured 1:1 with L Wnt3A cells; 48 h incubation; inhibition of luminescence signaling. A digest of the protocol:
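HEK293 cells stably carrying a Super-Top Flash TCF-luciferase reporter were co-cultured 1:1 with L Wnt3A cells for 24 h, then exposed to compound dilutions for 48 h at 37 °C. Luminescence read-out (Bright-Glo); IC50 from inhibition of luminescence.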
In general terms: A reporter such as luciferase makes a cellular process visible.
Regarding `Cc1cc(-c2ccc(CNc3nccc(N4CCc5ncccc5C4)n3)cc2)ccn1` [Compound A-156], the IC50 is 12 nM.

For `Cc1cc(-c2ccc(CNc3ccnc(-c4ccc5ncccc5c4)n3)cc2)ccn1` [Compound A-157], the IC50 came out at 3000 nM.

On to `Cc1cc(-c2ccc(CNc3ccnc(N4CCc5ncccc5C4)n3)cc2)ccn1` [Compound A-158], for which the IC50 was found to be 3000 nM.

Take `Cc1cc(-c2ccc(CNc3nccc(-c4ccc5ncncc5c4)n3)cc2)ccn1` [Compound A-159]: the IC50 amounted to 17 nM.

As for `Cc1cc(-c2ccc(CNc3ncnc(-c4ccc5ncccc5c4)n3)cc2)ccn1` [Compound A-160], the IC50 turned out to be 6.7 nM.

Take `Cc1cc(-c2ccc(CNc3nc(N4CCc5ncccc5C4)ncc3F)cc2)ccn1` [Compound A-161]: the IC50 is 3000 nM.

For the compound `Cc1cc(-c2ccc(CNc3ccnc(-c4ccc5ccccc5c4)c3)cc2)ccn1` [Compound A-164], the IC50 stood at 3000 nM.

Turning to `Cc1cc(-c2ccc(CNc3cc(-c4ccc5ncccc5c4)ccn3)cc2)ccn1` [Compound A-166], the IC50 was 3.6 nM.

For the compound `Cc1cc(-c2ccc(CNc3ncnc(-c4ccc5ccccc5c4)n3)cc2)ccn1` [Compound A-167], the IC50 came to 120 nM.

On to `Cc1cc(-c2ncc(CNc3nccc(-c4ccc5ncccc5c4)n3)cc2F)ccn1` [Compound A-168], for which the 50% inhibitory concentration (IC50) came out at 0.85 nM.

For the compound `Cc1cc(-c2ccc(CNc3nccc(-c4ccc5ncccc5c4)n3)cn2)ccn1` [Compound A-169], the IC50 stood at 4.9 nM.

As for `Cc1cc(-c2ncc(CNc3nccc(-c4ccc5ncccc5c4)n3)cc2C)ccn1` [Compound A-170], the IC50 was 3.7 nM.

`Cc1cc(-c2ncc(CNc3nccc(-c4ccc5ncccc5c4)n3)cc2C#N)ccn1` [Compound A-171]: the IC50 is 0.31 nM.

For `Cc1cc(-c2ncc(CNc3nccc(-c4ccc5ncccc5c4)n3)cn2)ccn1` [Compound A-172], the half-inhibitory concentration (IC50) was determined as 1.7 nM.

Turning to `c1cnc2ccc(-c3ccnc(NCc4ccc(-n5ccnc5)cc4)n3)cc2c1` [Compound A-173], the IC50 was 106 nM.

`Cc1cc(-c2cnc(CNc3nccc(-c4ccc5ncccc5c4)n3)cn2)ccn1` [Compound A-174]: the IC50 amounted to 2.7 nM.

As for `COc1cc(CNc2nccc(-c3ccc4ncccc4c3)n2)cnc1-c1ccnc(C)c1` [Compound A-175], the IC50 is 0.74 nM.

In the case of `Cc1cc(-c2ncc(CNc3nccc(-c4ccc5ncccc5n4)c3O)cc2F)ccn1` [Compound A-176, 2-((3-fluoro-2′-methyl-2,4′-bipyridin-5-yl)methylamino)-4-(1,5-naphthyridin-2-yl)pyridin-3-ol], the IC50 came to 18 nM.

Consider `N#Cc1ccc2cc(CNc3nccc(-c4ccc5ncccc5c4)n3)cnc2c1` [Compound A-177], for which the IC50 amounted to 100 nM.

Take `N#Cc1ccc2nc(CNc3nccc(-c4ccc5ncccc5c4)n3)ccc2c1` [Compound A-178]: the half-maximal inhibitory concentration (IC50) amounted to 200 nM.

As to `N#Cc1cnc2cc(CNc3nccc(-c4ccc5ncccc5c4)n3)ccc2c1` [Compound A-179, 7-((4-(quinolin-6-yl)pyrimidin-2-ylamino)methyl)quinoline-3-carbonitrile], the IC50 turned out to be 500 nM.

For `O=S1(=O)CCN(c2ccc(CNc3nccc(-c4ccc5ncccc5c4)n3)cn2)CC1` [Compound A-180], the 50% inhibitory concentration (IC50) was 300 nM.

Consider `CS(=O)(=O)CCNc1ccc(CNc2nccc(-c3ccc4ncccc4c3)n2)cn1` [Compound A-181], for which the IC50 turned out to be 350 nM.

Consider `COc1cc(CNc2nccc(-c3cc4cccnc4cn3)n2)cnc1-c1ccnc(C)c1` [Compound A-182], for which the IC50 was found to be 0.64 nM.

Turning to `Cc1cc(-c2ncc(CNc3nccc(-c4cc5cccnc5cn4)n3)cc2C#N)ccn1` [Compound A-183, 5-((4-(1,7-naphthyridin-6-yl)pyrimidin-2-ylamino)methyl)-2′-methyl-2,4′-bipyridine-3-carbonitrile], the IC50 was 2.1 nM.

`Cc1cc(-c2ncc(CNc3nccc(-c4cc5cccnc5cn4)n3)cc2F)ccn1` [Compound A-184]: the IC50 is 1 nM.

For `Cc1cc(-c2ncc(CNc3nnc(-c4ccc5ncccc5c4)s3)cc2C#N)ccn1` [Compound A-185], the IC50 was 4.3 nM.

Consider `Cc1cc(-c2ccc(CNc3nsc(-c4ccc5ncccc5c4)n3)cc2)ccn1` [Compound A-186], for which the concentration for half-maximal inhibition (IC50) was determined as 0.27 nM.

In the case of `Cc1cn(-c2ccc(CNc3nsc(-c4ccc5ncccc5c4)n3)cc2)cn1` [Compound A-187], the IC50 came out at 51 nM.

For the compound `O=S1(=O)CCN(c2ccc(CNc3nsc(-c4ccc5ncccc5c4)n3)cn2)CC1` [Compound A-188], the IC50 came out at 4.6 nM.

For the compound `CS(=O)(=O)CCNc1ccc(CNc2nsc(-c3ccc4ncccc4c3)n2)cn1` [Compound A-189], the IC50 stood at 3000 nM.

In the case of `Cc1cc(-c2ccc(CNc3nsc(-c4ccc5ncccc5c4)n3)cn2)ccn1` [Compound A-190], the 50% inhibitory concentration (IC50) came to 0.4 nM.

Take `Cc1cc(-c2ncc(CNc3nsc(-c4ccc5ncccc5c4)n3)cc2C)ccn1` [Compound A-191]: the IC50 was 0.38 nM.

As for `Cc1cc(-c2ncc(CNc3nsc(-c4ccc5ncccc5c4)n3)cc2F)ccn1` [Compound A-192], the IC50 worked out at 0.1 nM.

In the case of `COc1cc(CNc2nsc(-c3ccc4ncccc4c3)n2)cnc1-c1ccnc(C)c1` [Compound A-193], the 50% inhibitory concentration (IC50) amounted to 0.07 nM.

With `Cc1cc(-c2ncc(CNc3nsc(-c4ccc5ncccc5c4)n3)cc2C#N)ccn1` [Compound A-194], the IC50 was 0.09 nM.

As to `Cc1cc(-c2ncc(CNc3nsc(-c4cc5cccnc5cn4)n3)cc2F)ccn1` [Compound A-195], the IC50 amounted to 0.84 nM.

Regarding `COc1cc(CNc2nsc(-c3cc4cccnc4cn3)n2)cnc1-c1ccnc(C)c1` [Compound A-196, N-((3-methoxy-2′-methyl-2,4′-bipyridin-5-yl)methyl)-5-(1,7-naphthyridin-6-yl)-1,2,4-thiadiazol-3-amine], the IC50 amounted to 0.78 nM.

In the case of `Cc1cc(-c2ncc(CNc3nsc(-c4cc5cccnc5cn4)n3)cc2C#N)ccn1` [Compound A-197], the half-inhibitory concentration (IC50) was found to be 0.31 nM.

Take `Cc1cc(-c2ncc(CNc3nsc(N4CCc5ncccc5C4)n3)cc2C#N)ccn1` [Compound A-198, 5-((5-(7,8-dihydro-1,6-naphthyridin-6(5H)-yl)-1,2,4-thiadiazol-3-ylamino)methyl)-2′-methyl-2,4′-bipyridine-3-carbonitrile]: the 50% inhibitory concentration (IC50) was 0.42 nM.

Turning to `N#Cc1ccc2cc(CNc3nsc(-c4ccc5ncccc5c4)n3)cnc2c1` [Compound A-199, 3-((5-(quinolin-6-yl)-1,2,4-thiadiazol-3-ylamino)methyl)quinoline-7-carbonitrile], the IC50 came to 0.17 nM.

For the compound `N#Cc1ccc(NCCNc2nsc(-c3ccc4ncccc4c3)n2)nc1` [Compound A-200], the IC50 was found to be 25 nM.

For the compound `Cc1cc(-c2ncc(CNc3ncnc(N4CCn5nccc5C4)c3F)cc2C#N)ccn1` [Compound A-201], the IC50 stood at 0.8 nM.

For the compound `Cc1cc(-c2ncc(CNc3nccc(N4CCc5ncccc5C4)c3F)cc2F)ccn1` [Compound A-202, 4-(7,8-dihydro-1,6-naphthyridin-6(5H)-yl)-3-fluoro-N-((3-fluoro-2′-methyl-2,4′-bipyridin-5-yl)methyl)pyridin-2-amine], the IC50 was found to be 0.5 nM.
